Usually solubility stands for the concentration that dissolves in the medium under given conditions. Higher therefore signals a readily soluble substance.

SMILES strings stand for the structures. ≈ marks a conversion by molar mass, not a printed value.

Our source for the solubility values is ChEMBL document CHEMBL1133482, “1-Phenyl-5-pyrazolyl ureas: potent and selective p38 kinase inhibitors” (Bioorg Med Chem Lett, 2000).

The nature of this data set: Aqueous solubility at pH 7.5. Format: physicochemical.
`CC(C)(C)c1cc(NC(=O)Nc2cccc(Cl)c2Cl)n(-c2cccc(F)c2)n1` yielded a solubility of 17 µg/mL (≈ 40.4 µM). The compound `CC(C)(C)c1cc(NC(=O)Nc2cccc(Cl)c2Cl)n(-c2ccc(S(C)(=O)=O)cc2)n1` returned a solubility of 79 µg/mL (≈ 164 µM). Next, `CC(C)(C)c1cc(NC(=O)Nc2cccc(Cl)c2Cl)n(-c2ccccc2)n1`: 24 µg/mL (≈ 59.5 µM). With `CC(C)(C)c1cc(NC(=O)Nc2cccc(Cl)c2Cl)n(-c2ccc([N+](=O)[O-])cc2)n1`, the solubility was 66 µg/mL (≈ 147 µM). Compound `CC(C)(C)c1cc(NC(=O)Nc2cccc(Cl)c2Cl)n(-c2cccc([N+](=O)[O-])c2)n1` returned a solubility of 18 µg/mL (≈ 40.2 µM). Compared with the last compound, the solubility is about 3.7-fold lower. `COc1cccc(-n2nc(C(C)(C)C)cc2NC(=O)Nc2cccc(Cl)c2Cl)c1` showed a solubility of 46 µg/mL (≈ 106 µM). This solubility lies about 2.6-fold higher than the previous one.

Take `CC(C)(C)c1cc(NC(=O)Nc2cccc(Cl)c2Cl)n(-c2cccc(N)c2)n1`: the concentration in solution (solubility) came to 594 µg/mL (≈ 1420 µM).
